The source of these data is US12577247B2 (BUGWORKS RESEARCH, INC., priority 2021, dated 2026).

One test addresses T1, A2B receptor (Homo sapiens, UniProt P29275).
T1 sequence (P29275 1-332): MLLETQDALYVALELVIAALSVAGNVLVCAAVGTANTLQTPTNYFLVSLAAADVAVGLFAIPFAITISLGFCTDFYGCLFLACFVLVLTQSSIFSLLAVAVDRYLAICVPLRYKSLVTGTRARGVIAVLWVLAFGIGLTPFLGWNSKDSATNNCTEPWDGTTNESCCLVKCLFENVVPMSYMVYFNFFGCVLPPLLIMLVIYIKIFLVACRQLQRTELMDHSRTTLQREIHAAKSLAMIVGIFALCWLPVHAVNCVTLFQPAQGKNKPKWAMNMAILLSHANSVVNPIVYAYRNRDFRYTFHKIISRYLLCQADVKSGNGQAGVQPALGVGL
In words: A2bR antagonism IC50, cAMP TR-FRET in HEK-293 cells, high concentration of adenosine (30 μM).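 Also: compounds preincubated 10 min with cells, then adenosine stimulation 30 min at room temperature in buffer with Rolipram 100 µM and EHNA 30 µM, TR-FRET read after 1 h.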 To be noted: A2BR IC50 (nM) (@30 μM Adenosine), HEK-293 cells expressing A2B receptor; agonist adenosine 30 μM; 2% HSA; inhibition of cAMP. On the technique in general: TR-FRET usually uses a lanthanide donor and a delayed reading to cut background.

The target in another test is T2, A2A receptor (Homo sapiens, UniProt P29274).
T2 construct: host or cells: HEK-293
Briefly: A2aR antagonism IC50, cAMP TR-FRET in HEK-293 cells, high concentration of adenosine (30 μM).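 Also: compounds added 10 min before adenosine, then 30 min stimulation at room temperature in buffer with 100 µM rolipram and 30 µM EHNA, signal read 1 h after detection reagents.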 It is filed as cell-based. To be noted: HEK-293 cells expressing A2A receptor; agonist adenosine 30 μM; 2% HSA; inhibition of cAMP; read-out: A2AR IC50 (nM) (@30 μM Adenosine).

T2 sequence (P29274 whole entry): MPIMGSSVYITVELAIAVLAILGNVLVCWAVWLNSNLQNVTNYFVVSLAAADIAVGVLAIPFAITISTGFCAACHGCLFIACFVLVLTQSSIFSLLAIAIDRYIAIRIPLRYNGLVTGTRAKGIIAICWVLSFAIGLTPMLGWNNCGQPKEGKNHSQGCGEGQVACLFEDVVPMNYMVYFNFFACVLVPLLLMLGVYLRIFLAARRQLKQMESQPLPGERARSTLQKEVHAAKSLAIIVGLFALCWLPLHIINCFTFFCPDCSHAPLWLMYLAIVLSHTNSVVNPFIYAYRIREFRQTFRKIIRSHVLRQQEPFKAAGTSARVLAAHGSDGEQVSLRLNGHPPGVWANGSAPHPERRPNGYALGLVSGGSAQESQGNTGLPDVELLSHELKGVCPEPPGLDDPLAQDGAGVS
Description for A2B receptor: A Time-Resolved Fluorescence Energy Transfer (TR-FRET) assay was used to show the inhibition of this cAMP production in HEK cells upon treatment with compounds of the Formula I of the present disclosure.
HEK-293 cells expressing A2A receptor (#ES-011-C) or A2B receptor (#ES 013-C) were obtained from PerkinElmer. Cells were maintained in DMEM medium supplemented with 10% FBS and 200 μg/mL of G418 at 37° C. and 5% CO2. The cells were cultured in antibiotic free medium for a period of 16-20 hours prior to the assay. All subsequent steps of the assay are performed at room temperature (22-24° C.). […] About 1500 cells per well were pre-incubated for 10 minutes with the compounds of the present invention before adding the agonist Adenosine at a high concentration (30 μM) for a total stimulation time of 30 minutes. […] The assays were conducted in a stimulation buffer containing 1×DMEM, 5 mM HEPES, 2% Human serum albumin (HSA), 100 μM Rolipram and 30 μM erythro-9-(2-hydroxy-3-nonyl) adenine (EHNA). Serial dilutions of compounds were made in stimulation buffer to achieve a final concentration of high micromolar in a reaction volume of 10 μL. The total reaction volume was 10 μL (5 μL of cells, 2.5 μL of antagonist and 2.5 μL of agonist). […] The stimulation was ended, and the reaction completed by adding 5 μL of 4× Eu-cAMP tracer working solution and 5 μL of 4× ULight-anti-cAMP working solution. The TR FRET signal was measured after 1-hour incubation using a Tecan M1000 or a PerkinElmer Victor Nivo plate reader.

What is called IC50 is the midpoint of a concentration-inhibition curve. In the case of `CCCc1c(C)nn2c(N)c(C#N)c(NCCc3ccn(C4COCC4CO)n3)nc12` (single isomer, unassigned; (+)) [Example 160a, (+) 7-amino-5-((2-(1-(4-(hydroxymethyl)tetrahydrofuran-3-yl)-1H-pyrazol-3-yl)ethyl)amino)-2-methyl-3-propylpyrazolo[1,5-a]pyrimidine-6-carbonitrile], the results for the IC50 at A2B receptor and on A2A receptor were 1930 nM and 579 nM, respectively.
For the compound `Cc1nn2c(N)c(C#N)c(NCCc3ccn(C4CCC4CO)n3)nc2c1C` (single isomer, unassigned; (+)) [Example 104a, (+)-7-amino-5-((2-(1-(2-(hydroxymethyl)cyclobutyl)-1H-pyrazol-3-yl)ethyl)amino)-2,3-dimethylpyrazolo[1,5-a]pyrimidine-6-carbonitrile], the IC50 on A2B receptor worked out at 2260 nM; on A2A receptor, 88 nM.
Consider `CCc1c(C)nn2c(N)c(C#N)c(NCCc3ccn(CCCO)n3)nc12` [Example 111, 7-amino-3-ethyl-5-((2-(1-(3-hydroxypropyl)-1H-pyrazol-3-yl)ethyl)amino)-2-methylpyrazolo[1,5-a]pyrimidine-6-carbonitrile], for which the IC50 on A2B receptor stood at 2380 nM; on A2A receptor, 666 nM.
`Cc1nn2c(N)c(C#N)c(NCCc3ccn(C4(CO)CC4)n3)nc2c1Br` [Example 69, 7-amino-3-bromo-5-((2-(1-(1-(hydroxymethyl)cyclopropyl)-1H-pyrazol-3-yl)ethyl)amino)-2-methylpyrazolo[1,5-a]pyrimidine-6-carbonitrile]: the figures for the IC50 at A2B receptor and on A2A receptor were 2050 nM and 68 nM, respectively.
With `Cc1nn2c(N)c(C#N)c(NCCc3ccn(C4CCC4CO)n3)nc2c1Br` (stereo not shown) [Example 130, 7-amino-3-bromo-5-((2-(1-(2-(hydroxymethyl)cyclobutyl)-1H-pyrazol-3-yl)ethyl)amino)-2-methylpyrazolo[1,5-a]pyrimidine-6-carbonitrile], the IC50 on A2B receptor was determined as 5880 nM; at A2A receptor, 280 nM.
On the same counts, the results for `CCc1c(C)nn2c(N)c(C#N)c(NCCc3ccc(F)c(CO)n3)nc12` [Example 91, 7-amino-3-ethyl-5-((2-(5-fluoro-6-(hydroxymethyl)315yridine-2-yl)ethyl)amino)-2-methylpyrazolo[1,5-a]pyrimidine-6-carbonitrile] are 1620 nM and 628 nM.
For `Cc1nn2c(N)c(C#N)c(NCCc3ccn(CC4CC(O)C4)n3)nc2c1Cl` (single isomer, unassigned; (-)) [Example 84, (−)-7-amino-3-chloro-5-((2-(1-((3-hydroxycyclobutyl)methyl)-1H-pyrazol-3-yl)ethyl)amino)-2-methylpyrazolo[1,5-a]pyrimidine-6-carbonitrile], the IC50 came to 4250 nM on A2B receptor and 102 nM at A2A receptor.
On the same counts, the results for `CCc1c(C)nn2c(N)c(C#N)c(NCCc3ccn(C4(CNCC[S+](C)[O-])CC4)n3)nc12` (single isomer, unassigned; (+)) [Example 163b, (+)-7-amino-3-ethyl-2-methyl-5-((2-(1-(1-(((2-(methylsulfinyl)ethyl)amino)methyl)cyclopropyl)-1H-pyrazol-3-yl)ethyl)amino) pyrazolo[1,5-a]pyrimidine-6-carbonitrile] are 12200 nM and 82 nM.
On the same counts, the results for `CCc1c(C)nn2c(N)c(C#N)c(NCCc3ccnn3CCCO)nc12` [Example 110, 7-amino-3-ethyl-5-((2-(1-(3-hydroxypropyl)-1H-pyrazol-5-yl)ethyl)amino)-2-methylpyrazolo[1,5-a]pyrimidine-6-carbonitrile] are more than 15000 nM and more than 15000 nM.
Turning to `Cc1nn2c(N)c(C#N)c(NCCc3ccn(C4COCC4CO)n3)nc2c1C` (single isomer, unassigned; (-)) [Example 133b, (−)-7-amino-5-((2-(1-(4-(hydroxymethyl)tetrahydrofuran-3-yl)-1H-pyrazol-3-yl)ethyl)amino)-2,3-dimethylpyrazolo[1,5-a]pyrimidine-6-carbonitrile], the results for the IC50 at A2B receptor and at A2A receptor were 6070 nM and 136 nM, respectively.
As for `Cc1nn2c(N)c(C#N)c(NCCc3ccn(C4CCCC4CN)n3)nc2c1Cl` (stereo not shown) [Example 118, 7-amino-5-((2-(1-(2-(aminomethyl)cyclopentyl)-1H-pyrazol-3-yl)ethyl)amino)-3-chloro-2-methylpyrazolo[1,5-a] pyrimidine-6-carbonitrile], the figures for the IC50 on A2B receptor and at A2A receptor were 7850 nM and 78 nM, respectively.
On the same counts, the results for `CCc1c(C)nn2c(N)c(C#N)c(NCCc3cccc(C(C)O)n3)nc12` (racemic) [Example 100, 7-amino-3-ethyl-5-((2-(6-(1-hydroxyethyl)pyridin-2-yl)ethyl)amino)-2-methylpyrazolo[1,5-a] pyrimidine-6-carbonitrile] are 1010 nM and 139 nM.
For `Cc1nn2c(N)c(C#N)c(NCCc3ccn(C4COCC4CO)n3)nc2c1C` (single isomer, unassigned; (+)) [Example 133a, (+)-7-amino-5-((2-(1-(4-(hydroxymethyl)tetrahydrofuran-3-yl)-1H-pyrazol-3-yl)ethyl)amino)-2,3-dimethylpyrazolo[1,5-a]pyrimidine-6-carbonitrile], the IC50 on A2B receptor is 6690 nM; at A2A receptor, 554 nM.
On the same counts, the results for `CCc1c(C)nn2c(N)c(C#N)c(NCCc3cccn(CCCO)c3=O)nc12` [Example 113, 7-amino-3-ethyl-5-((2-(1-(3-hydroxypropyl)-2-oxo-1,2-dihydropyridin-3-yl)ethyl)amino)-2-methylpyrazolo[1,5-a]pyrimidine-6-carbonitrile] are 1050 nM and 187 nM.
Consider `CCc1c(C)nn2c(N)c(C#N)c(NCCc3cccn(CC[S+](C)[O-])c3=O)nc12` (single isomer, unassigned; (+)) [Example 144a, (+)7-amino-3-ethyl-2-methyl-5-((2-(1-(2-(methylsulfinyl)ethyl)-2-oxo-1,2-dihydropyridin-3-yl)ethyl)amino) pyrazolo[1,5-a]pyrimidine-6-carbonitrile], for which the figures for the IC50 at A2B receptor and on A2A receptor were 821 nM and 327 nM, respectively.
`CCc1c(C)nn2c(N)c(C#N)c(NCCc3cc(C)n(C4(CO)CC4)n3)nc12` [Example 76, 7-amino-3-ethyl-5-((2-(1-(1-(hydroxymethyl)cyclopropyl)-5-methyl-1H-pyrazol-3-yl)ethyl)amino)-2-methylpyrazolo[1,5-a]pyrimidine-6-carbonitrile]: the IC50 at A2B receptor turned out to be 1590 nM; at A2A receptor it was 50 nM.
Take `CCc1c(C)nn2c(N)c(C#N)c(NCCc3ccn(CCC[S+](C)[O-])n3)nc12` (single isomer, unassigned; (+)) [Example 162b, (+)-7-amino-3-ethyl-2-methyl-5-((2-(1-(3-(methylsulfinyl)propyl)-1H-pyrazol-3-yl)ethyl)amino)pyrazolo[1,5-a]pyrimidine-6-carbonitrile]: the IC50 on A2B receptor was determined as 2730 nM; on A2A receptor it was 1230 nM.
As for `Cc1nn2c(N)c(C#N)c(NCCc3cccn(C)c3=O)nc2c1Cl` [Example 87, 7-amino-3-chloro-2-methyl-5-((2-(1-methyl-2-oxo-1,2-dihydropyridin 3-yl)ethyl)amino) pyrazolo[1,5-a]pyrimidine-6-carbonitrile], the IC50 at A2B receptor was determined as 1760 nM; on A2A receptor, 80 nM.
Regarding `CCc1c(C)nn2c(N)c(C#N)c(NCCc3cccn(CC[S+](C)[O-])c3=O)nc12` (racemic) [Example 143, Racemic (+−)7-amino-3-ethyl-2-methyl-5-((2-(1-(2-(methylsulfinyl)ethyl)-2-oxo-1,2-dihydropyridin-3-yl)ethyl)amino) pyrazolo[1,5-a]pyrimidine-6-carbonitrile], the results for the IC50 at A2B receptor and on A2A receptor were 1340 nM and 667 nM, respectively.
For `CCc1c(C)nn2c(N)c(C#N)c(NCCc3cccn(CCC[S+](C)[O-])c3=O)nc12` (single isomer, unassigned; (+)) [Example 154b, (+)-7-amino-3-ethyl-2-methyl-5-((2-(1-(3-(methylsulfinyl)propyl)-2-oxo-1,2-dihydropyridin-3-yl)ethyl)amino) pyrazolo[1,5-a]pyrimidine-6-carbonitrile], the IC50 on A2B receptor came out at 1410 nM; at A2A receptor, 1010 nM.
Turning to `Cc1nn2c(N)c(C#N)c(NCCc3ccn(C4(CNCCO)CC4)n3)nc2c1Cl` [Example 98, 7-amino-3-chloro-5-((2-(1-(1-(((2-hydroxyethyl)amino)methyl)cyclopropyl)-1H-pyrazol-3-yl)ethyl)amino)-2-methylpyrazolo[1,5-a]pyrimidine-6-carbonitrile], the results for the IC50 at A2B receptor and on A2A receptor were more than 15000 nM and 100 nM, respectively.
For `CCCc1c(C)nn2c(N)c(C#N)c(NCCc3cccn(CCCO)c3=O)nc12` [Example 156, 7-amino-5-((2-(1-(3-hydroxypropyl)-2-oxo-1,2-dihydropyridin-3-yl)ethyl)amino)-2-methyl-3-propylpyrazolo[1,5-a]pyrimidine-6-carbonitrile] the same measures were 2950 nM and 750 nM.
As for `CCc1c(C)nn2c(N)c(C#N)c(NCCc3cccc(C(C)O)n3)nc12` (single isomer, unassigned; (-)) [Example 159b, (−)-7-amino-3-ethyl-5-((2-(6-(1-hydroxyethyl)pyridine-2-yl)ethyl)amino)-2-methylpyrazolo[1,5-a]pyrimidine-6-carbonitrile], the IC50 stood at 1020 nM at A2B receptor and 457 nM on A2A receptor.
